In patent US9422267B2, “Fused pyrimidine compounds and use thereof” (Medivation Technologies, Inc., priority 2012, dated 2016):
One block for each compound: values may come before it.

How the values were obtained:
[1] = biological target: FAK2(PTK2b) (Homo sapiens, UniProt Q14289); test: Caliper kinase assay: FAK2(PTK2b); conditions: 0.01 μM
Description: (§6) The compound was tested at concentrations of 1.0×10^−8 and 1.0×10^−9 M in the RapidKinase192™ panel in duplicate. […] The screening was performed using the Caliper EZReader2, a 4-sipper LabChip, and ProfilerPro Kinase Selectivity Assay Kits 1 and 2. The assay measures the conversion of a fluorescent peptide substrate to a phosphorylated product. Briefly, the reaction mixture was introduced through a capillary sipper onto the microfluidic chip, where the substrate and product were electrophoretically separated and detected by laser-induced fluorescence. The time-dependent fluorescence signal indicates the extent of the reaction.
(§7) The kinases tested were AurA, AurB, AurC, AXL, FAK2, IGF1R, InsR, Mer, MET, TrkB and TrkC.
(§8) The assays were conducted using the Caliper LabChip 3000 and a 12-sipper LabChip as described above.

[2] = tested on: HCC 1187; test: Cell Titer-Glo cell viability: HCC 1187; type: cell-based; conditions: Homo sapiens
Description: (§1) Compound nos. […] This panel of cell lines includes an ER− breast carcinoma, primary breast ductal carcinoma, prostate adenocarcinoma, mammary adenocarcinoma, mammary ductal carcinoma, mammary ductal carcinoma, ovary adenocarcinoma, ER+ breast carcinoma, ER-HER2+ mammary ductal carcinoma and an ER+ mammary ductal carcinoma, respectively.
(§2) This assay quantitates the ATP present in order to determine the number of viable cells in culture. Briefly, the compounds were incubated with the cells for 72 h, followed by cell lysis. The resulting luminescent signal is proportional to the amount of ATP present and, therefore, directly proportional to the number of cells present in culture.
(§3) Compounds 2b, 5, 6b and 10a were tested along with derivatives in viability assays as described above by Caliper LifeSciences Systems (Hanover, Md.), in A549, HCT-15, HCT-116, MCF-7, MDA-MB-231, OVCAR3, T47D, COLO205, HT-29, BT-20, HCC1187, HL-60, MDA-MB-175, SW-620, and UACC812 cells.

[3] = tested on: HT-29; test: Cell Titer-Glo cell viability: HT-29; type: cell-based; conditions: Homo sapiens, HT-29, 72 h
Description: as §2
(§4) Compound nos. […] These cell lines are derived from human lung carcinoma, colon adenocarcinoma, colon adenocarcinoma, colon carcinoma, acute promyelocytic leukemia, colon adenocarcinoma, colon adenocarcinoma (from metastatic site lymph node), respectively.
as §3

[4] = tested on: HCT-116; test: Cell Titer-Glo cell viability: HCT-116; type: cell-based; conditions: Homo sapiens, HCT116, colon carcinoma
Description: as §2, §4, §3

[5] = tested on: Akt phosphorylation induced by IGF-1R in HT-29 cells; test: Western blot analysis of Akt phosphorylation induced by IGF-1R; type: cell-based, Human; conditions: then IGF-1 10 ng/mL 10 min, HT-29
Description: Inhibition of Akt phosphorylation induced by IGF-1R was studied by western blot analysis. Human colon carcinoma HT-29 cells were seeded at a density of 8×10^4 cells/well in a 24-well plate and grown in DME/F12 media containing 10% FBS for 24 h. The cells were then depleted of serum by incubation in DME/F12 media lacking FBS for 24 h. […] […] Lysed cells were centrifuged at 13,000 rpm for 15 min and the protein concentration soluble fraction (supernatant) of each sample was determined using a BCA protein assay (Pierce).

[6] = tested on: BT-20; test: Cell Titer-Glo cell viability: BT-20; type: cell-based; conditions: Homo sapiens
Description: as §1, §2, §3

[7] = biological target: NTRK2 (TRKB) (Homo sapiens, UniProt Q16620); test: Caliper kinase profiling: NTRK2 (TRKB); conditions: 0.01 μM
Chain of NTRK2 (TRKB) (Q16620 32-822): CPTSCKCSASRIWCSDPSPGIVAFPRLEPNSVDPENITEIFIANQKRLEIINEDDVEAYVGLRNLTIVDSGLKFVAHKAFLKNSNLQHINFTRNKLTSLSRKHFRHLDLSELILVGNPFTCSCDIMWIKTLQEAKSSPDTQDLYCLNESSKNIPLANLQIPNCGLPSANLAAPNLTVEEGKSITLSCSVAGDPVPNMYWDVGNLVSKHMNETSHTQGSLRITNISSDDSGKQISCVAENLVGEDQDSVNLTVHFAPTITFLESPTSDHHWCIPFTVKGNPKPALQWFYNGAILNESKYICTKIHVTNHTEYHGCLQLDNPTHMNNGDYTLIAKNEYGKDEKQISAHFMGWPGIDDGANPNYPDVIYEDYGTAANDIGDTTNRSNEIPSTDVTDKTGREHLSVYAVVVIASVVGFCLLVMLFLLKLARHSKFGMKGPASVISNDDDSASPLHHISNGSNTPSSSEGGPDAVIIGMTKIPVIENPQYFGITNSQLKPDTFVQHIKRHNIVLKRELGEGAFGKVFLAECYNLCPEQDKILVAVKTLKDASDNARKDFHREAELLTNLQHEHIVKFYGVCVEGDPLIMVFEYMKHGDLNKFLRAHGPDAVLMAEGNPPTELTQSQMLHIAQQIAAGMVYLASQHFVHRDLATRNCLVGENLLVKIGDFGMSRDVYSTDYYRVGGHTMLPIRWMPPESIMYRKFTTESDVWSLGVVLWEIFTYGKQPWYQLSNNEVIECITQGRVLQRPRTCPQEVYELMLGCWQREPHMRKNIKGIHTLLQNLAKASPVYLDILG
Description: as §6, §7, §8

[8] = tested on: COLO 205; test: Cell Titer-Glo cell viability: COLO 205; type: cell-based; conditions: Homo sapiens
Description: as §2, §4, §3

[9] = biological target: T1, AXL (Homo sapiens, UniProt P30530); test: Caliper kinase profiling: AXL; conditions: 0.01 μM
T1 sequence (P30530 26-894): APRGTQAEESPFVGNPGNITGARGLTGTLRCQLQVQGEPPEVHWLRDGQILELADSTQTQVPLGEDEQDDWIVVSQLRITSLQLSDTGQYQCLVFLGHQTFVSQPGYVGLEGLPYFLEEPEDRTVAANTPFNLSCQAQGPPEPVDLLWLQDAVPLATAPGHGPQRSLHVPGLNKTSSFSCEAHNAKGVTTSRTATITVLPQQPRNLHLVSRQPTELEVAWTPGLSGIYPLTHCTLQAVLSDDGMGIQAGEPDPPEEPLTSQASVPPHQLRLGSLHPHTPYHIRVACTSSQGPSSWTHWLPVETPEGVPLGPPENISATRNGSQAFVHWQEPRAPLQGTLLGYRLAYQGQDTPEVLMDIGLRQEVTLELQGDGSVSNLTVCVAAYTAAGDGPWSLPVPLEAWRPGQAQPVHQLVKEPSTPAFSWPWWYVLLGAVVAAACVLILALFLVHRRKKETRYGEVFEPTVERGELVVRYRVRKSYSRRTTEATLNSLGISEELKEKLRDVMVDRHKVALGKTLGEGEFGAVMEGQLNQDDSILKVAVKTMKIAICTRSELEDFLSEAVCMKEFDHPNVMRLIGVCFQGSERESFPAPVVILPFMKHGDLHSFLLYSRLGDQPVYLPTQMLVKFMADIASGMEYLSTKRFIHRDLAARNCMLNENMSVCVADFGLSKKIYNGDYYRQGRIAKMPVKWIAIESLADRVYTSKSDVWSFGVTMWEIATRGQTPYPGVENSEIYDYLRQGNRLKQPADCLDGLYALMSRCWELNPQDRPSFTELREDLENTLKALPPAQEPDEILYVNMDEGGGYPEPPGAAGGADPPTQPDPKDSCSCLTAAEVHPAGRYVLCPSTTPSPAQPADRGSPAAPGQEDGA
Description: as §6, §7, §8

[10] = tested on: SW-620; test: Cell Titer-Glo cell viability: SW-620; type: cell-based; conditions: Homo sapiens, SW-620, metastatic colorectal cancer
Description: as §2, §4, §3

[11] = tested on: HCT-15; test: Cell Titer-Glo cell viability: HCT-15; type: cell-based; conditions: Homo sapiens, HCT15, colon carcinoma
Description: as §2, §4, §3

[12] = tested on: HL-60; test: Cell Titer-Glo cell viability: HL-60; type: cell-based, human
Description: as §2, §4, §3

[13] = biological target: TRKC (NTRK3) (Homo sapiens, UniProt Q16288); test: Caliper kinase profiling: TRKC (NTRK3); conditions: 0.01 μM
Chain of TRKC (NTRK3) (Q16288 32-839): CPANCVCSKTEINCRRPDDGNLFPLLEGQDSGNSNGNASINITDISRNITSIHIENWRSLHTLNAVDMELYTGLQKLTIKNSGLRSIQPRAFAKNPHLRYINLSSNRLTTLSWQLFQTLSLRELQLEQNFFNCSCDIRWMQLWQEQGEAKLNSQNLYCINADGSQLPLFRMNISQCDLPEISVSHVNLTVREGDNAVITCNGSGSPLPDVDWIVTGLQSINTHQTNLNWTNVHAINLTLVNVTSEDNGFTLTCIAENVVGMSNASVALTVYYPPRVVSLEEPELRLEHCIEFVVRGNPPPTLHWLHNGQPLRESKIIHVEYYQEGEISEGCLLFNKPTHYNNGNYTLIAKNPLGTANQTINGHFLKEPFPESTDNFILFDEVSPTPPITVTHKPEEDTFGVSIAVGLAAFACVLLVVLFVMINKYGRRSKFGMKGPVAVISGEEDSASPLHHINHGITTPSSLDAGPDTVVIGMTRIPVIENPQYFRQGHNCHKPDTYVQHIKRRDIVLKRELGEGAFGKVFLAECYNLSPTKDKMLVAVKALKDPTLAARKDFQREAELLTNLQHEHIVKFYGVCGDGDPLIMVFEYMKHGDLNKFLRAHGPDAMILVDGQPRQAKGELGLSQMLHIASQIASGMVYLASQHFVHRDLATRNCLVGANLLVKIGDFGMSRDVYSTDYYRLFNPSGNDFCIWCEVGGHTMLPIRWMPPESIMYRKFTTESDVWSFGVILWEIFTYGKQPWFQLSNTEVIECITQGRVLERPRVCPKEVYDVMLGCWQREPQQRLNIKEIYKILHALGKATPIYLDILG
Description: as §6, §7, §8

[14] = tested on: UACC 812; test: Cell Titer-Glo cell viability: UACC 812; type: cell-based; conditions: Homo sapiens
Description: as §1, §2, §3
(§5) The inhibitory effects of Compound 8a were tested in two cell lines.

[15] = tested on: MDA MB 175; test: Cell Titer-Glo cell viability: MDA MB 175; type: cell-based; conditions: MDA-MB-175, breast cancer; 72 h incubation, Cell Titer-Glo
Description: as §1, §2, §3, §5

[16] = tested on: A549; test: Cell Titer-Glo cell viability: A549; type: cell-based; conditions: Homo sapiens, A549, non-small lung carcinoma
Description: as §2, §4, §3

[17] = tested on: MCF-7; test: Cell Titer-Glo cell viability: MCF-7; type: cell-based; conditions: Homo sapiens, MCF7, breast cancer
Description: as §1, §2, §3

[18] = tested on: LNCaP; test: Cell Titer-Glo cell viability: LNCaP; type: cell-based; conditions: Homo sapiens
Description: as §1, §2

[19] = tested on: OVCAR-3; test: Cell Titer-Glo cell viability: OVCAR-3; type: cell-based; conditions: Homo sapiens, OVCAR3, ovarian cancer
Description: as §1, §2, §3

[20] = tested on: T47D; test: Cell Titer-Glo cell viability: T47D; type: cell-based; conditions: Homo sapiens, breast cancer
Description: as §1, §2, §3

[21] = tested on: MDA MB 231; test: Cell Titer-Glo cell viability: MDA MB 231; type: cell-based; conditions: Homo sapiens, MDAMB231, breast cancer, 72 h incubation, Cell Titer-Glo
Description: as §1, §2, §3

[22] = tested on: ZR-75-1; test: Cell Titer-Glo cell viability: ZR-75-1; type: cell-based; conditions: Homo sapiens; ZR-75-1, breast cancer; 72 h
Description: as §1, §2

[23] = biological target: KDR (Homo sapiens, UniProt P35968); test: Caliper kinase profiling: KDR; type: biochemical; conditions: read-out: Average % Inh @ 1 μM
Chain of KDR (P35968 20-1356): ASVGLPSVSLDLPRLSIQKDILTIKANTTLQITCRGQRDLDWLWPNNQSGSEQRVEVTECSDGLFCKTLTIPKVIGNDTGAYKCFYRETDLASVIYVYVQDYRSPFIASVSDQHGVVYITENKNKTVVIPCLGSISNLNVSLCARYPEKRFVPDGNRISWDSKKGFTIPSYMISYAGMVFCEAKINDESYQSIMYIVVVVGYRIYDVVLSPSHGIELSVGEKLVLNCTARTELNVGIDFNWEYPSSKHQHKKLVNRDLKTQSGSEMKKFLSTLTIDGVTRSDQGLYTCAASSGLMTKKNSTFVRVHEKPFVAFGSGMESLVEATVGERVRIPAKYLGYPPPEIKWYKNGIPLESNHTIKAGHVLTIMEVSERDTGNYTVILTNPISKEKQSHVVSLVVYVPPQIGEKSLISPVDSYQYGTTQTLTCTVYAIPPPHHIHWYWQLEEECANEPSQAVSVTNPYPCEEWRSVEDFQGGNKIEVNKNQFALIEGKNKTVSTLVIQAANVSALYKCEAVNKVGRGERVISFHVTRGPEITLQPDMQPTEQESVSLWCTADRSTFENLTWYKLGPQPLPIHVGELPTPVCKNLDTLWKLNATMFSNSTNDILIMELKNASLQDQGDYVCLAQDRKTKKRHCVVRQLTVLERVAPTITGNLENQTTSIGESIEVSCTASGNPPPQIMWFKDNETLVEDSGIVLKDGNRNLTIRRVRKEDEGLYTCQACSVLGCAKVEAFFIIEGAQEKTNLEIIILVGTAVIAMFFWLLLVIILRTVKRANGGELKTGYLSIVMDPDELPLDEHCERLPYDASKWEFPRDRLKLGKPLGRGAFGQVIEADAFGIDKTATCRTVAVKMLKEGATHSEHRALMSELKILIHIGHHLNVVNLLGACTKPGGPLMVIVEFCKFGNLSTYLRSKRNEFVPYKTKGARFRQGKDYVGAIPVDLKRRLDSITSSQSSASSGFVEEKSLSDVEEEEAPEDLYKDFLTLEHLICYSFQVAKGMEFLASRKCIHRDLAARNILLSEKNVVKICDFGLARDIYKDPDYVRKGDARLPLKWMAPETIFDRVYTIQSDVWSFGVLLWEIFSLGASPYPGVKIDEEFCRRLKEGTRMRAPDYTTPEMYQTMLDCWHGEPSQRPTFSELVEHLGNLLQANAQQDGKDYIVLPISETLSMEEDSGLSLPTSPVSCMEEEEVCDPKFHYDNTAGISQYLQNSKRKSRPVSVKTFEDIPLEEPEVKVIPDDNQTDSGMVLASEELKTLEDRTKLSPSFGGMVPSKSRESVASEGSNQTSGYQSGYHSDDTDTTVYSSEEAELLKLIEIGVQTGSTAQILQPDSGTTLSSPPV
Description: as §6

[24] = biological target: IGF1R (Homo sapiens, UniProt P08069); test: Caliper kinase profiling: IGF1R; type: biochemical; design: purchased Caliper LifeSciences (ProfilerPro Kinase Selectivity Assay Kits); conditions: 1 μM, read-out: Average % Inh @ 1 μM
Description: as §6

[25] = 72 h incubation, Cell Titer-Glo
[26] = HT29, colon adenocarcinoma (second entry of the table), 72 h

Chain of FAK2(PTK2b) (Q14289 whole entry): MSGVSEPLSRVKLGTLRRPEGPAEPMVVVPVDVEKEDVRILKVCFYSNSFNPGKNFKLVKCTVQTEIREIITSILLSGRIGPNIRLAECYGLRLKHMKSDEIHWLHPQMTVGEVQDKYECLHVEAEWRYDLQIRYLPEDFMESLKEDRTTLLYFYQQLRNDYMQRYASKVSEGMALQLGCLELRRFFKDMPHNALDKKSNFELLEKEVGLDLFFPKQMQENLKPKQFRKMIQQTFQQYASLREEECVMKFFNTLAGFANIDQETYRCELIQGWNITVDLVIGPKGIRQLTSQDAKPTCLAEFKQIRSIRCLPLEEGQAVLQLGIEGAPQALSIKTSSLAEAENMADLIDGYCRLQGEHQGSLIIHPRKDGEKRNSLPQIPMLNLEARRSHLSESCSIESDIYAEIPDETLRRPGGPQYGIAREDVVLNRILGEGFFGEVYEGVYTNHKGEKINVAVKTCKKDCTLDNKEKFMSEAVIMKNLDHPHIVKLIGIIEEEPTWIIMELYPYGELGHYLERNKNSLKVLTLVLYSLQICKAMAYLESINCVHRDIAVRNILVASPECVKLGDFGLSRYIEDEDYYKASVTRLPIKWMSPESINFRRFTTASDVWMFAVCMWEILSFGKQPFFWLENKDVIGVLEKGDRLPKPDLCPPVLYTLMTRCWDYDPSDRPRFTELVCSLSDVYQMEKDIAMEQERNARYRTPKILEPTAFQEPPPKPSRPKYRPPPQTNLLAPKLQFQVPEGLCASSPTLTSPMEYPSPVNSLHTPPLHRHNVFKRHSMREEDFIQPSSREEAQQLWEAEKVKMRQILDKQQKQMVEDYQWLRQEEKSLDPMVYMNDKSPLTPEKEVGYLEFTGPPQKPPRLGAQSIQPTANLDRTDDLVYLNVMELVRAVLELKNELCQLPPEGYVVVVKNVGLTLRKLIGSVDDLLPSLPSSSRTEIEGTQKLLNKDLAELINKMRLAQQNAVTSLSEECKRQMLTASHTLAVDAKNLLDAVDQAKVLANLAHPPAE

inhibition of FAK2 in panel of 11 kinases [1]: strongly inhibited
IC50 ([2]; HCC1187, HCC-1187, breast cancer, 72 h incubation, Cell Titer-Glo): < 1 µM
IC50 ([3]; HT-29, colon adenocarcinoma, 72 h incubation, Cell Titer-Glo): < 0.1 µM
IC50 [4, 25]: 10 µM
IC50 ([6]; BT-20, breast cancer, 72 h incubation, Cell Titer-Glo): < 10 µM
inhibition of TrkB in panel of 11 kinases [7]: strongly inhibited
IC50 ([8]; COLO 205, 72 h, COLO205, colon cancer, 72 h incubation, Cell Titer-Glo): < 0.1 µM
inhibition of AXL in panel of 11 kinases [9]: strongly inhibited
IC50 ([10]; SW-620, 72 h, 72 h incubation, Cell Titer-Glo): < 10 µM
IC50 ([11]; HCT-15, 72 h, 72 h incubation, Cell Titer-Glo): < 100 µM
IC50 ([12]; Homo sapiens, HL-60, 72 h, HL60, promyelocytic leukemia, 72 h incubation, Cell Titer-Glo): 0.1 µM
inhibition of TrkC in panel of 11 kinases [13]: strongly inhibited
IC50 ([16]; A549, 72 h, 72 h incubation, Cell Titer-Glo): < 10 µM
IC50 [17, 25]: < 1 µM
IC50 ([18]; Prostate cancer, 72 h incubation, Cell Titer-Glo): < 1 µM
IC50 [19, 25]: 1 µM
IC50 [20, 25]: 1 µM
SMILES: O=C(Nc1ccc(F)nc1)C1CC(O)CN1c1nc2c(c(Nc3cc(C4CC4)[nH]n3)n1)CCC2 (single isomer, unassigned) [Compound 10a]
phosphorylated AKT levels normalized to actin levels (pAKT/actin) ([5]; 1 nM compound 2 h): 0.54
phosphorylated AKT levels normalized to actin levels (pAKT/actin) ([5]; 10 nM compound 2 h): 0.00
phosphorylated AKT levels normalized to actin levels (pAKT/actin) ([5]; 100 nM compound 2 h): 0.01
IC50 ([14]; UACC 812, breast cancer, 72 h incubation, Cell Titer-Glo): < 10 µM
IC50 [15]: < 10 µM
IC50 [21]: 10 µM

SMILES: C[C@@]1(C(=O)Nc2ccc(F)nc2)CCCN1c1nc(Nc2cc(C3CC3)n[nH]2)c2cccn2n1 [BMS-754807, (S)-1-(4-(5-cyclopropyl-1H-pyrazol-3-ylamino)pyrrolo[1,2-f][1,2,4]triazin-2-yl)-N-(6-fluoropyridin-3-yl)-2-methylpyrrolidine-2-carboxamide, reference compound]
IC50 [22]: > 100 µM
IC50 ([2]; HCC1187, breast cancer, 72 h): < 10 µM
IC50 [3, 26]: < 1 µM
IC50 ([3]; HT-29, colon cancer, 72 h): < 10 µM
IC50 ([4]; 72 h): 10 µM
phosphorylated AKT levels normalized to actin levels (pAKT/actin) ([5]; 10 nM compound 2 h): 0.09
phosphorylated AKT levels normalized to actin levels (pAKT/actin) ([5]; 100 nM compound 2 h): 0.02
IC50 ([6]; BT-20, BT20, breast cancer, 72 h): < 100 µM
IC50 ([8]; COLO-205, colon adenocarcinoma, 72 h): < 1 µM
IC50 ([10]; 72 h): 1 µM
IC50 ([11]; HCT-15, 72 h): < 100 µM
IC50 ([12]; HL-60, promyelocytic leukemia, 72 h): < 10 µM
IC50 ([12]; Homo sapiens, HL-60, HL60, promyelocytic leukemia (second entry of the table), 72 h): < 10 µM
IC50 ([14]; UACC-812, UACC812, breast cancer, 72 h): < 100 µM
IC50 ([16]; 72 h): < 10 µM
IC50 ([17]; 72 h): 0.1 µM
IC50 ([18]; prostate cancer, 72 h): < 10 µM
IC50 ([19]; 72 h): < 10 µM
IC50 ([20]; 72 h): < 10 µM

IC50 [3, 26]: < 10 µM
IC50 ([3]; HT-29, colon cancer, 72 h): < 100 µM
IC50 ([4]; 72 h): < 100 µM
IC50 ([8]; COLO 205, 72 h, COLO-205, colon adenocarcinoma, 72 h): 1 µM
IC50 ([10]; SW-620, 72 h, 72 h): < 100 µM
inhibition at 1 µM [23]: 40 to 59%
IC50 ([11]; HCT-15, 72 h, 72 h): < 100 µM
IC50 ([12]; Homo sapiens, HL-60, 72 h, HL60, promyelocytic leukemia (second entry of the table), 72 h): < 10 µM
IC50 ([12]; Homo sapiens, HL-60, 72 h, HL-60, promyelocytic leukemia, 72 h): < 100 µM
IC50 ([16]; A549, 72 h, 72 h): 10 µM
inhibition at 1 µM [24]: > 60%
SMILES: CC1(O)CC(c2nc(-c3ccc4ccc(-c5ccccc5)nc4c3)c3c(N)nccn23)C1 (stereo not shown) [OSI-906, 3-[8-Amino-1-(2-phenyl-7-quinolyl)imidazo[1,5-a]pyrazin-3-yl]-1-methyl-cyclobutanol, reference compound]
phosphorylated AKT levels normalized to actin levels (pAKT/actin) ([5]; 1 nM compound 2 h): 0.85
phosphorylated AKT levels normalized to actin levels (pAKT/actin) ([5]; 100 nM compound 2 h): 0.40
